Test results from US20100120799A1, “PURINE DERIVATIVES AS IMMUNOMODULATORS” (SMITHKLINE BEECHAM CORPORATION, priority 2007, published 2010).
Values joined by “and” are separate entries in the source; they are usually repeats but may differ in a detail not shown here. Identical values can stand only once.

Assays:
[1] = test system: HCV ET replicon cells (Huh-7, HCV Con1-ET construct); assay: Replicon assay: inhibition of Hepatitis C virus replication by supernatants from compound-stimulated human PBMC; assay type: cell-based; settings: Huh-7 HCV ET replicon, luciferase, 48 h incubation, read-out: mean EC50 (compound concentration giving a PBMC supernatant inhibiting HCV replication by 50%)
Procedure: Inhibition of Hepatitis C virus Replication by Supernatants from Compound-Stimulated Human Peripheral Blood Mononuclear Cells (PBMC).
An assay was established to measure the antiviral activity in supernatants from human PBMC which had been previously stimulated with compounds.
Activity assays were conducted using an Huh-7 cell line stably-transfected with a dicistronic replicon, comprising the HCV Con1-ET construct (Pietschmann et al., 2002 J. Virol. 2002 76(8):4008-21) and the firefly (Photinus pyralis) luciferase gene, obtained from ReBLikon GmbH, Germany.
1.5×10^4 HCV ET replicon cells per well were grown in 96-well plates overnight in 90 microlitres of cell culture medium. Ten microlitres of three-fold dilutions of PBMC supernatants generated above (stimulation of human donor blood-derived peripheral blood mononuclear cells (PBMC) with test compounds) were added to the ET cells. Following a 48-hour incubation, assay medium was removed and luciferase activity measured in the cell monolayers using the Steadylite assay system (Perkin Elmer). EC50 values were calculated as the compound concentration giving a PBMC supernatant which was able to inhibit HCV replication by 50% compared with a supernatant from unstimulated PBMC cultures.

[2] = test system: Ovalbumin (OVA)-induced acute pulmonary inflammation; assay: Ovalbumin-induced acute pulmonary inflammation model; assay type: in vivo, BALB/c mice; settings: BAL on day 28
Procedure: Inhibition of Ovalbumin (OVA)—Induced Acute Pulmonary Inflammation. Female BALB/c mice (18-20 g) were inoculated on days 0 and 14, with 10 μg OVA adsorbed to 2 mg aluminium hydroxide in a volume of 0.2 ml phosphate buffered saline (PBS) via the intra-peritoneal route. On days 24-26, mice were intra-nasally challenged with 50 μl of either saline or OVA (formulated as above) under general anaesthesia. […] Doses were given once daily on days 23 to 27 with the initial dose 24 h prior to the first challenge. On the days of challenge, animals were dosed with compound or vehicle one hour after challenge. Animals therefore received a total of 5 doses. Dexamethasone was used as a positive control dosed at 10 mg/kg orally in the same vehicle once daily on days 24 to 27 with the initial dose 1 h prior to the first challenge. Animals therefore received a total of 4 doses. Animals were killed on day 28 (48 hours post last saline or OVA challenge) and bronchoalveolar lavage (BAL) was performed with 5×1 ml (0.1% bovine serum albumin, 10 mM EDTA in PBS) and pooled. Numbers of lymphocytes, macrophages, eosinophils and neutrophils in BAL were identified by light scatter flow cytometry and quantified.

[3] = 5 mg/kg orally once daily days 23 to 27, compared with saline treated controls
[4] = positive control, 10 mg/kg orally once daily days 24 to 27, 10 mg/kg

SMILES	EC50 [1]	reduction of eosinophil counts in BAL [2, 3]	reduction of lymphocyte counts in BAL [2, 3]	reduction of neutrophil counts in BAL [2, 3]	reduction of eosinophil counts in BAL [2, 4]	reduction of lymphocyte counts in BAL [2, 4]	reduction of neutrophil counts in BAL [2, 4]
CCCCOc1nc(N)c2[nH]c(=O)n(CC3CCOCC3)c2n1 [Example 1, 6-Amino-2-butoxy-9-(tetrahydro-2H-pyran-4-ylmethyl)-7,9-dihydro-8H-purin-8-one]	43 nM						
CCCCNc1nc(N)c2[nH]c(=O)n(CC3CCOCC3)c2n1 [Example 4, 6-Amino-2-butylamino-9-(tetrahydro-2H-pyran-4-ylmethyl)-7,9-dihydro-8H-purin-8-one]	1050 nM	72%	66%	50%			
CCCCOc1nc(N)c2[nH]c(=O)n(CC3CCCOC3)c2n1 (centres unmarked) [Example 12, 6-Amino-2-butoxy-9-(tetrahydro-2H-pyran-3-ylmethyl)-7,9-dihydro-8H-purin-8-one]		67%	68%	58%			
C[C@@H]1C[C@H]2[C@@H]3CCC4=CC(=O)C=C[C@]4(C)[C@@]3(F)[C@@H](O)C[C@]2(C)[C@@]1(O)C(=O)CO [dexamethasone, Dexamethasone, reference compound]					92% and 86%	87% and 86%	68% and 65%
